SMILES strings stand for the structures. Counter-ions that a name gives are not always drawn.

For orientation: viability means a read-out of living cells in per cent, often relative to untreated cells.

The data set is described as follows: in vitro. Particulars: human, hek293t cells.
Method: Mammalian cytotoxicity measurement was performed using Cell Titer-Glo 2.0 Cell Viability Assay (Promega, G9243) according to the manufacturer protocol. In brief, mammalian cells were seeded into 384-well white plates (Greiner, 781080) and incubated at 37°C for one day. Compounds from the Cys-Library were dispensed into the assay plate using epMotion 96. The plates were then incubated at 37°C for two days. An equal volume of Cell Titer-Glo 2.0 reagent was added into each well of the assay plate using epMotion 96 and incubated at 22°C for 10 min, followed by luminescence measurement using a Cytation 5 plate reader (BioTek).
For the molecule `O=C(CCl)Nc1ncc(Cc2ccccc2Cl)s1` [4-P07, 2-chloro-N-{5-[(2-chlorophenyl)methyl]-1,3-thiazol-2-yl}acetamide], the viability at 48 h, 25 µM is -0.245%.

As for `O=C(CCl)Nc1cccc(S(=O)(=O)N2CCOCC2)c1` [4-P08, 2-chloro-N-[3-(morpholine-4-sulfonyl)phenyl]acetamide], the viability at 48 h, 25 µM came out at 0.715%. In the case of `CCN(CC)S(=O)(=O)c1cc(NC(=O)C(C)Cl)ccc1C` (stereo not drawn) [4-P09, 2-chloro-N-[3-(diethylsulfamoyl)-4-methylphenyl]propanamide], the viability at 48 h, 25 µM is 69.6%. The same measure for `CCN(C(=O)CCl)c1c(N)n(Cc2ccccc2)c(=O)[nH]c1=O` [4-P10, N-(6-amino-1-benzyl-2,4-dioxo-1,2,3,4-tetrahydropyrimidin-5-yl)-2-chloro-N-ethylacetamide]: 65.4%. The same measure for `CC(Cl)C(=O)NCc1cccs1` (stereo not drawn) [4-P11, 2-chloro-N-[(thiophen-2-yl)methyl]propanamide]: 68.4%; for `NS(=O)(=O)c1ccc(CNC(=O)CCl)cc1` [4-P12, 2-chloro-N-[(4-sulfamoylphenyl)methyl]acetamide]: 0.879%; for `O=C(CCl)NSc1ccc([N+](=O)[O-])cc1` [4-P13, 2-chloro-N-[(4-nitrophenyl)sulfanyl]acetamide]: 3.88%. Turning to `O=C(CCl)Nc1ccc(Cl)c(S(=O)(=O)N2CCCCC2)c1` [4-P14, 2-chloro-N-[4-chloro-3-(piperidine-1-sulfonyl)phenyl]acetamide], the viability at 48 h, 25 µM is -0.167%. The same measure for `CCOc1ccc(S(=O)(=O)N2CCN(C(=O)CCl)CC2)cc1` [4-P15, 2-chloro-1-[4-(4-ethoxybenzenesulfonyl)piperazin-1-yl]ethan-1-one]: 0.587%; for `CCN(C(=O)C(C)Cl)c1ccccc1` (stereo not drawn) [4-P16, 2-chloro-N-ethyl-N-phenylpropanamide]: 109%. Take `COc1ccc([N+](=O)[O-])cc1NC(=O)CCl` [4-P17, 2-chloro-N-(2-methoxy-5-nitrophenyl)acetamide]: the viability at 48 h, 25 µM was found to be 0.714%. Regarding `COc1ccc(CN2CCN(C(=O)CCl)CC2)cc1F` [4-P18, 2-chloro-1-{4-[(3-fluoro-4-methoxyphenyl)methyl]piperazin-1-yl}ethan-1-one hydrochloride], the viability at 48 h, 25 µM was determined as 0.482%. For `O=C(CCl)Nc1cccc(Oc2ccccc2)c1` [4-P19, 2-chloro-N-(3-phenoxyphenyl)acetamide], the viability at 48 h, 25 µM was found to be 0.14%. Take `Cn1cc(S(=O)(=O)N2CCOCC2)cc1C(=O)NC(=O)CCl` [4-P20, N-(2-chloroacetyl)-1-methyl-4-(morpholine-4-sulfonyl)-1H-pyrrole-2-carboxamide]: the viability at 48 h, 25 µM came to 106%. As for `CCS(=O)(=O)c1ccc(NC(=O)CCl)c(O)c1` [4-P21, 2-chloro-N-[4-(ethanesulfonyl)-2-hydroxyphenyl]acetamide], the viability at 48 h, 25 µM was 73.2%. For `COc1ccc(C2CCCN2C(=O)CCl)c(OC)c1` (stereo not drawn) [4-P22, 2-chloro-1-[2-(2,4-dimethoxyphenyl)pyrrolidin-1-yl]ethan-1-one], the viability at 48 h, 25 µM was determined as 0.348%. In the case of `COc1cccc(NC(=O)CN(C)C(=O)CCl)c1` [5-A03, 2-chloro-N-{[(3-methoxyphenyl)carbamoyl]methyl}-N-methylacetamide], the viability at 48 h, 25 µM came to 0.139%. In the case of `Cc1nc2n(n1)CCN(C(=O)C(C)Cl)C2` (stereo not drawn) [5-A04, 2-chloro-1-{2-methyl-5H,6H,7H,8H-[1,2,4]triazolo[1,5-a]pyrazin-7-yl}propan-1-one], the viability at 48 h, 25 µM is 107%.

Regarding `CCC(C)(C)C1CCc2c(sc(NC(=O)CCl)c2C#N)C1` (stereo not drawn) [5-A05, 2-chloro-N-[3-cyano-6-(2-methylbutan-2-yl)-4,5,6,7-tetrahydro-1-benzothiophen-2-yl]acetamide], the viability at 48 h, 25 µM is -0.0335%. Regarding `CN(CCC1CCCCC1)C(=O)CCl` [5-A06, 2-chloro-N-(2-cyclohexylethyl)-N-methylacetamide], the viability at 48 h, 25 µM came out at 0.304%. The same measure for `CC(Cl)C(=O)Nc1cccc(S(=O)(=O)N(C)C)c1` (stereo not drawn) [5-A07, 2-chloro-N-[3-(dimethylsulfamoyl)phenyl]propanamide]: 55.5%. For `O=C(CCl)N1CCN(C(=O)CC(F)(F)F)CC1` [5-A08, 1-[4-(2-chloroacetyl)piperazin-1-yl]-3,3,3-trifluoropropan-1-one], the viability at 48 h, 25 µM was determined as 0.522%. The same measure for `O=C(CCl)NCC1CC(=O)N(c2ccccc2)C1` (stereo not drawn) [5-A09, 2-chloro-N-[(5-oxo-1-phenylpyrrolidin-3-yl)methyl]acetamide]: 0.822%; for `CCn1nc(C)c(CN(C)C(=O)CCl)c1C` [5-A10, 2-chloro-N-[(1-ethyl-3,5-dimethyl-1H-pyrazol-4-yl)methyl]-N-methylacetamide]: 1.55%; for `O=C(CCl)NC1CCC(O)(c2cccc(F)c2)CC1` (stereo not drawn) [5-A11, 2-chloro-N-[4-(3-fluorophenyl)-4-hydroxycyclohexyl]acetamide]: 0.51%.

As to `CC(C)CN(C(=O)CCl)c1cnn(-c2ccccn2)c1` [5-A12, 2-chloro-N-(2-methylpropyl)-N-[1-(pyridin-2-yl)-1H-pyrazol-4-yl]acetamide], the viability at 48 h, 25 µM is 0.323%. Regarding `Cc1cccc(C)c1NC(=O)CN(C)C(=O)CCl` [5-A13, 2-chloro-N-{[(2,6-dimethylphenyl)carbamoyl]methyl}-N-methylacetamide], the viability at 48 h, 25 µM worked out at 0.212%. As to `Cc1nn(C)c(C)c1CN(C(=O)CCl)C1CCCCC1C` (stereo not drawn) [5-A14, 2-chloro-N-(2-methylcyclohexyl)-N-[(1,3,5-trimethyl-1H-pyrazol-4-yl)methyl]acetamide], the viability at 48 h, 25 µM amounted to 0.467%. With `COc1ccc(CN2CCN(C(=O)CCl)CC2)cc1` [5-A15, 2-chloro-1-{4-[(4-methoxyphenyl)methyl]piperazin-1-yl}ethan-1-one hydrochloride], the viability at 48 h, 25 µM was -0.117%.

With `Cn1nnc(CN(C(=O)CCl)C2CCCCCCC2)n1` [5-A16, 2-chloro-N-cyclooctyl-N-[(2-methyl-2H-1,2,3,4-tetrazol-5-yl)methyl]acetamide], the viability at 48 h, 25 µM came out at 0.784%. Turning to `CC(NC(=O)CCl)c1ccc(-c2ccccc2)cc1` (stereo not drawn) [5-A17, N-(1-{[1,1'-biphenyl]-4-yl}ethyl)-2-chloroacetamide], the viability at 48 h, 25 µM is 123%. For the molecule `CN(C(=O)CCl)C1CCN(c2ccccc2F)C1=O` (stereo not drawn) [5-A18, 2-chloro-N-[1-(2-fluorophenyl)-2-oxopyrrolidin-3-yl]-N-methylacetamide], the viability at 48 h, 25 µM turned out to be 0.916%. Take `CC(Cl)C(=O)NCc1ccc(F)cc1` (stereo not drawn) [5-A19, 2-chloro-N-[(4-fluorophenyl)methyl]propanamide]: the viability at 48 h, 25 µM worked out at 76.2%. Consider `O=C(CCl)N1CCn2c(cc3ccccc32)C1` [5-A20, 2-chloro-1-{1H,2H,3H,4H-pyrazino[1,2-a]indol-2-yl}ethan-1-one], for which the viability at 48 h, 25 µM worked out at 0.499%. The same measure for `CC(Cl)C(=O)NC(c1ccccc1)c1ccccc1` (stereo not drawn) [5-A21, 2-chloro-N-(diphenylmethyl)propanamide]: 85.8%; for `Cn1cc(NC(=O)CCl)c(C(=O)NC2CCC2)n1` [5-A22, 4-(2-chloroacetamido)-N-cyclobutyl-1-methyl-1H-pyrazole-3-carboxamide]: 2.84%.
